From patent US20080311613A1, “ARTIFICIAL SKIN SURFACE FILM LIQUIDS” (The Government of the U.S.A. as represented by the …, priority 2007, published 2008)
In brackets after ≈: the same amount, converted by molar mass. Read-outs that look alike come from different tables or passages of the source. Blank lines part the entries; values can stand above or below the molecule they belong to.

Tests used:
[1] = Dissolution of vitamin constituents during preparation of artificial sweat; details: for dissolution on addition to the artificial sweat solution: before pH adjustment (pH 3.8 as prepared), 36° C.
Protocol: (§1) This large initial volume was useful in promoting dissolution of the constituents of the artificial sweat. […] Next, the desired masses of electrolytes and other ionic constituents (see Table 2) were added to the flask. Upon addition of the electrolytes and ionic constituents, the concentrations of chloride, calcium, and iron were measured to assess whether they matched predictions from weighing: 1.67×10^−2 M chloride, 6.93×10^−3 M calcium, and 0.54 ppm iron. Next, organic acids and carbohydrates were added to the solution (see Table 2) and the stability of chloride, calcium, and iron concentrations verified. Amino acids were added (see Table 2) then calcium and iron concentrations verified; chloride ion concentration was measured to determine if it matched the predicted value (1.7×10^−2 M) from weighing electrolytes, ionic constituents, and hydrogen chloride salts of some amino acids. Nitrogenous substances were added (see Table 2) and chloride, calcium, and iron concentrations re-verified.
(§2) Vitamin constituents were added to the solution last (see Table 2).
(§3) The pH of the artificial sweat solution was raised from 3.8 (as prepared) to a final pH of 5.3 by adding 5 M sodium hydroxide dropwise while monitoring using a calibrated pH electrode (InLab 413, Mettler-Toledo, Schwerzenbach, Switzerland) connected to a multi-meter (Seven Multi, Mettler-Toledo). […] The final volume of the solution was then brought up to 1.0 L using 18 megohm-cm distilled and deionized water and the final pH verified. To minimize opportunity for microbial growth, the final sweat solution was filtered through a 0.2 μm pore size filter (Cat. No. SCGVU11RE, Millipore Corp., Billerica, Mass.).

[2] = Long-term stability of artificial sebum by thin-layer chromatography; format: physicochemical; details: dry at 32° C., absence of vitamin E
Protocol: Lipids and formulation of synthetic sebum. Cholesteryl oleate, oleoyl oleate, palmityl palmitate, cholesterol and vitamin E ((±)-α-tocopherol) were purchased from Sigma-Aldrich (St. Louis, Mo.). Squalene and stearic acid were from Acros Organics (Geel, Belgium). Triolein and tristearin were purchased from MP Biochemicals (Solon, Ohio), and oleic acid was from Fisher Scientific (Fairlawn, N.J.). […] All nine lipids were dissolved in a 2:1 co-solvent mixture of chloroform and methanol and divided into two portions, one of which received vitamin E at 0.1% by weight to mimic human sebum content. After combining and mixing, portions of lipid solution were transferred to 16×125 mm glass tubes equipped with Teflon-lined screw caps. One set of tubes with lipid solution was maintained at 4° C. to characterize storage using refrigeration. […]
Thin-layer chromatography. All samples were analyzed using thin layer chromatography. Glass plates (20×20 cm) coated with 0.25-mm-thick silica gel G (Adsorbosil-plus-1; Alltech Associates; Deerfield Ill.) were washed with chloroform:methanol, 2:1, activated in a 110° C. oven, and the adsorbent was scored into 6-mm-wide lanes. […] After two hrs, charring was complete, and the chromatograms were quantitated by photodensitometry. […]

[3] = water, cited from earlier work
physchem = details: artificial sweat, 36 °C
Protocol: as §1, §2, §3

SMILES: O=C(O)c1cccnc1 [nicotinic acids, Nicotinic Acid (C6H5NO2)]
- dissolution on addition to the artificial sweat solution [1]: did not dissolve completely

SMILES: Cc1cc2nc3c(=O)[nH]c(=O)nc-3n(C[C@H](O)[C@H](O)[C@H](O)CO)c2cc1C [riboflavin, Riboflavin (C17H20N4O6)]
- concentration in artificial sweat relative to that predicted by solubility in water ([1]; artificial sweat vs water): two orders of magnitude greater
- solubility [3]: 0.3 mg/mL (≈ 797 µM)
- solubility (physchem): ≥ 2000 µM

SMILES: Cc1cc2nc3c(=O)[nH]c(=O)nc-3n(C[C@H](O)[C@H](O)[C@H](O)COP(=O)(O)O)c2cc1C [riboflavin 5′-(dihydrogen phosphate), reference compound]
- solubility ([3]; pH=5.6): 68 mg/mL

The remaining lines, values ahead:

- day by which completely oxidized [2]: ≤ 21 days
SMILES: CC(C)=CCC/C(C)=C/CC/C(C)=C/CC/C=C(\C)CC/C=C(\C)CCC=C(C)C [squalene]

- dissolution on addition to the artificial sweat solution [1]: did not dissolve completely
SMILES: CC(C)(CO)[C@@H](O)C(=O)NCCC(=O)O [pantothenic, D-Pantothenic Acid (C9H17NO5)]
